In paper PMC11166409 (Transfusion Medicine and Hemotherapy, 2024):
Residues, ends and D or L forms follow the SMILES beside them.

Target: HLA-A*02:01 (Homo sapiens, UniProt P04439, D140Y/D185E/D98H/E176V/E277Q/G131W/G231S/I119V/I121R/I166T/I218V/L300P/L318F/N151K/N90K/P208A/P217A/Q86G/Q94H/R138H/R169H/T345S)
Assay: Competition-based peptide binding assay on EBV-LCL48 cells

Row | SMILES | IC50 [µM]
1 | CC[C@H](C)[C@H](NC(=O)[C@@H](N)Cc1ccc(O)cc1)C(=O)N[C@@H](Cc1ccc(O)cc1)C(=O)N[C@@H](CC(N)=O)C(=O)N[C@@H](CCCNC(=N)N)C(=O)N[C@@H](CCC(=O)O)C(=O)N[C@@H](CCC(=O)O)C(=O)N[C@@H](Cc1ccccc1)C(=O)N[C@H](C(=O)O)C(C)C (H-YIYNREEFV-OH) | 4.9
2 | CC[C@H](C)[C@H](NC(=O)[C@@H](N)Cc1ccc(O)cc1)C(=O)N[C@@H](Cc1ccc(O)cc1)C(=O)N[C@@H](CC(N)=O)C(=O)N[C@@H](CCCNC(=N)N)C(=O)N[C@@H](CCC(=O)O)C(=O)N[C@@H](CCC(=O)O)C(=O)N[C@@H](CC(C)C)C(=O)N[C@H](C(=O)O)C(C)C (H-YIYNREELV-OH) | 3.9
